Series [1] deals with T1, MKK7 (Homo sapiens, UniProt O14733).
T1 construct: purchased Nanosyn (contract assay)
T1 sequence (O14733 1-419): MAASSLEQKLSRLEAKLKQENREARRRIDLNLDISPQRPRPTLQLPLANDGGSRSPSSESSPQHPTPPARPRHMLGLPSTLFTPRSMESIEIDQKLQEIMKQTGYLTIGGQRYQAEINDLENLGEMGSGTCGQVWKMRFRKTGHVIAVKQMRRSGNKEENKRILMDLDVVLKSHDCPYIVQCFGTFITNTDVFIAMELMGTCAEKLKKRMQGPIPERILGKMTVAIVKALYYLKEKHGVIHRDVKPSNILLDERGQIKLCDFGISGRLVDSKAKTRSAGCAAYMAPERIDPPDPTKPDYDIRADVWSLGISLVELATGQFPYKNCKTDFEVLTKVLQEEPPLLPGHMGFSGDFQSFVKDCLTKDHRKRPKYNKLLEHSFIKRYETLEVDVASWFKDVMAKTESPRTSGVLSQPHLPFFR
The series is described as follows: In vitro kinase activity assay for MKK7 (Nanosyn). The format is biochemical.

A further series deals with T2, MKK4 (Homo sapiens, UniProt P45985).
T2 construct: purchased Nanosyn (contract assay)
T2 sequence (P45985 1-399): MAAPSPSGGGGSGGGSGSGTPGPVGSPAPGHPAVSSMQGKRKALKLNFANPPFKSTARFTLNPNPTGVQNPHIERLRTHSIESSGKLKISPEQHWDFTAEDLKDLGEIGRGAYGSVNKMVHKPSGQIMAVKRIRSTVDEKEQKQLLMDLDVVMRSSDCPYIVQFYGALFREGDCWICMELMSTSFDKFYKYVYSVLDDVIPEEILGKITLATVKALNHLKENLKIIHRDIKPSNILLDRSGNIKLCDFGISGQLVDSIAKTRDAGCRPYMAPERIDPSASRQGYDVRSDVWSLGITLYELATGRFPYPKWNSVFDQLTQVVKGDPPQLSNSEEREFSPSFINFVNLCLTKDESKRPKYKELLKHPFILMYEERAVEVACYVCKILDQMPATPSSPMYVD
The series is described as follows: In vitro activity assay for MKK4 (Nanosyn). The format is biochemical. Here is the method:
In Vitro Activity Assays for MKK7 or MKK4 (Carried by Nanosyn):
Exemplary test compounds, according to some embodiments of the present invention, were diluted in DMSO to a final concentration that ranged from 10 μM to 0.0565 nM, while final concentration of DMSO in all assays was kept at 1%. Reference compound, Staurosporine, was tested in a similar manner. […] After incubation, activity of now activated JNK1 was tested in the presence of 30 μM ATP ATP for 17 h (MKK7) or 4 h (MKK4).

The target of series [2] is T3, MKK7 (Homo sapiens, UniProt O14733).
T3 construct: MKK7 isoform 1 (103-426 residues) with a C-terminal 6-His tag; 6-His (C); made in house; host or cells: E. coli Rosetta2 (DE3) pLysS
T3 sequence (O14733 103-426 isoform O14733-3): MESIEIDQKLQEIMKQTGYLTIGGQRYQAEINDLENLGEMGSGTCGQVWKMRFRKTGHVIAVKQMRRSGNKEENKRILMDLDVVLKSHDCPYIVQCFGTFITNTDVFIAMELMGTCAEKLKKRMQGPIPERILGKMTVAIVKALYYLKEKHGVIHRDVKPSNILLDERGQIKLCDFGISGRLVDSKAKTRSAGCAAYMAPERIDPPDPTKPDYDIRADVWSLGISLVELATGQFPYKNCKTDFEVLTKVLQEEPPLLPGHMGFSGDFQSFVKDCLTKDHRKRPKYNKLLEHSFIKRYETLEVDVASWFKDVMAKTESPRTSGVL
The series is described as follows: Intact protein mass spectrometry covalent labeling. The class given is binding. Conditions: 4° C., molecule 20 μM, protein 10 μM. Here is the method: Intact Protein Mass Spectrometry:
Samples were injected after indicated incubation times into LC/MS (Waters ACUITY UPLC class H), in positive ion mode using electrospray ionization. C4 column (300 Å, 1.7 μM, […]×100 mm) was held at 40° C., and the autosampler at 10° C. Desolvation temperature was 500° C. with flow rate of 1000 liter/hour. The voltage used were 0.69 kV for the capillary and 46 V for the cone. Spectra were deconvoluted using MaxEnt1 software.
After 1 hour or 16 hours incubation at 4° C.

Series [3] in a line: Metabolic stability in mouse liver microsomes. The format is in vitro ADME. Conditions: for half-life: mouse, liver microsomes. The text has this: (§1) A reference compound, REF1250, was used in this study: […]
(Liver microsomes are a subcellular fraction often used to study metabolism.)

Series [4] in a line: Metabolic stability in rat liver microsomes. Conditions: for half-life: rat, liver microsomes. The class given is in vitro ADME.
Text: as §1

Series [5] in a line: Metabolic stability in dog liver microsomes. The class given is in vitro ADME. The following applies: for half-life: dog, liver microsomes.
Text: as §1

The nature of series [6]: Metabolic stability in monkey liver microsomes. The format is in vitro ADME.
Text: as §1

The nature of series [7]: Metabolic stability in human liver microsomes. The class given is in vitro ADME. Conditions: for half-life: human, liver microsomes.
Text: as §1

Where two headings read alike, the source gives them in different places. Where only a bound is given, the exact number is not on record here.

Regarding `C=CC(=O)Nc1cccc(-c2n[nH]c3c2CCCC3)c1` [GO4], the concentration for half-maximal inhibition (IC50) (commonly the concentration needed to halve the response being measured) was 11 nM at MKK7 [1] (read-out: MKK7 IC50 in vitro) and 4130 nM at MKK4. Moreover, the covalent labeling was 65.16% at MKK7 [2] (1 hour) and 95.15% on MKK7 [2] (16 hours). Further, the “% remaining @ 40 min” value in series [3], in series [4], in series [5], in series [6] and in series [7] was 0% each time. The half-life in series [3], in series [4], in series [5], in series [6] and in series [7] was less than 5 min throughout.
As to `C=CC(=O)Nc1cccc(-c2n[nH]c3ccccc23)c1` [GO32], at MKK7 [1] (MKK7 nanomolar, Aurora kinase micromolar), the “potency towards MKK7 compared with Aurora kinase” value was “at least two orders of magnitude”. For the same compound, the results for the half-maximal inhibitory concentration (IC50) at MKK7 [1] (read-out: MKK7 IC50), at MKK7 [1] (read-out: MKK7 IC50 in vitro) and against MKK4 were 9 nM, 6 nM and 4150 nM, respectively. Further, the covalent labeling on MKK7 [2] (1 hour) is on record as 78.14%; at MKK7 [2] (16 hours) it was 96.29%. The “% remaining @ 40 min” value in series [3], in series [4], in series [5], in series [6] and in series [7] was 0% in each case. Moreover, the half-life in series [3], in series [4], in series [5], in series [6] and in series [7] was less than 5 min in each case.
As to `C=CC(=O)Nc1cccc(-c2n[nH]c3cc(C)ccc23)c1` [GO80], the IC50 at MKK7 [1] (read-out: MKK7 IC50 in vitro) was 5 nM; against MKK4, 7810 nM. Also, the covalent labeling at MKK7 [2] (1 hour) was 59.58%; at MKK7 [2] (16 hours), 92.87%. In addition, the “% remaining @ 40 min” value stood at 0% in series [3]; 1% in series [4]; 0% in series [5]; 0% in series [6]; 0% in series [7]. Moreover, the half-life – broadly, the time needed for the level to fall by half in the phase considered – is less than 5 min in series [3]; 6 min in series [4]; less than 5 min in series [5]; less than 5 min in series [6]; less than 5 min in series [7].
